Experimental data: patent publication US20090105283A1, “3-HYDROQUINAZOLIN-4-ONE DERIVATIVES FOR USE AS STEAROYL CoA DESATURASE INHIBITORS” (priority 2007, published 2009)

Target: T1, stearoyl-CoA desaturase (SCD) (Rattus norvegicus, UniProt P07308)
T1 construct: The microsomes were quickly thawed and added to assay buffer so that a concentration of 0.4 mg/ml was achieved; from tissue
T1 sequence (P07308 1-358): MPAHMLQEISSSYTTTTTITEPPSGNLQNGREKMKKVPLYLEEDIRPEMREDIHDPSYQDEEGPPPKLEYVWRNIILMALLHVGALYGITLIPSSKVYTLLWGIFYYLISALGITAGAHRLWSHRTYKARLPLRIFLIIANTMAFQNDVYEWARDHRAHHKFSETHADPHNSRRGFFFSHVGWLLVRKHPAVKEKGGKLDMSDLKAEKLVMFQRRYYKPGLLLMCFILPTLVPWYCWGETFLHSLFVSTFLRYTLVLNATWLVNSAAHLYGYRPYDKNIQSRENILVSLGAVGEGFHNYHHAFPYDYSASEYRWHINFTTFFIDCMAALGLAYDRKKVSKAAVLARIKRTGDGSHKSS
Test: SCD assay with rat liver microsomes ([3H]stearoyl CoA, adapted from Talamo and Bloch)
Format: biochemical
Conditions: Table 1; rat liver microsomes 0.2 mg/ml assay final, [3H]stearoyl CoA substrate, 30 min preincubation, 45 min reaction, room temperature
Excerpt: Male Spraque Dawley Rats were placed on regimented fasting protocol for one week to stimulate SCD enzymatic activity. 48-hour periods were alternated between feeding and fasting to induce and down-regulate SCD activity with SCD activity being induced via carbohydrate rich diet prior to liver perfusion and collection.
The rats were anesthetized with Isoflurane inhalation anesthetic, the liver perfused with cold phosphate buffered saline (PBS), weighed, and chilled in cold homogenization buffer (250 mM sucrose, 10 mM Tris, 1 mM EDTA, pH 7.6.
The livers were finely minced and placed in homogenization tube. 40 mL of homogenization buffer was added to the homogenization tube and the liver homogenized and centrifuged in a pre-chilled […] for 10 min at 4° C.
Following centrifugation, the supernatant was collected and the pellet removed and discarded. The supernatant was centrifuge at 10,000 G for 35 minutes. Following centrifugation, the supernatant was collect and the pellet discarded. The supernatant was then centrifuged in a pre-chilled 45-Ti rotor at 130,000 G (41,000 RPM) for 90 minutes at 4° C.
The supernatant was then aspirated off and the collected microsomal pellet washed in 25 mL of Glycerol PBS (1×PBS 7.4, 20% Glycerol) and resuspended in 4-5 volumes of Glycerol PBS.
The protein concentration of the microsomal preparation was determined by BCA assay (Pierce) and the microsomes were aliquoted and stored at −80° C.
Biobeads were ground to a smaller size in a mortar and pestle and resuspended in 3.6% TCA. The beads were then filtered through […] mesh.
SCD was determined in the desaturase assay buffer. This assay buffer contained 0.1 M Tris buffer, pH 7.2, 2 mM NADH, 4.8 mM ATP, 0.5 mM CoA, 4.8 mM MgCl2, and 0.1% BSA.
1 μl of each compound of Formula I was added to an assay plate by a low volume (0.5-10 μL) multichannel pipette. A DMSO control was also prepared. The microsomes were quickly thawed and added to assay buffer so that a concentration of 0.4 mg/ml was achieved (0.2 mg/ml assay final). 50 μl of the microsome suspension in assay buffer was then added into each well in the compound assay plate, the plate was covered, and the microsomes preincubated with the compounds for 30 minutes on the orbital shaker, 50-75 rpm, at room temperature.
The reaction mixtures were then incubated for 45 minutes on the orbital shaker at 50-75 rpm at room temperature.
The reaction was terminated by the addition of 10 μl of 21% trichloroacetic acid (TCA) to the reaction mixture followed incubation on the orbital shaker for 30 minutes at 50-75 rpm at room temperature followed by centrifugation for 5 minutes at 3700 rpm.
50 μl of a 6% Bio-Bead suspension in H2O was added to the reaction mixture and the assay plate was sealed. The Bio-Bead mixture was incubated on the orbital shaker for 1 hour, 100-150 rpm at room temperature, and then the mixture was centrifuged at 2000 g for 5 minutes to pellet the Bio-Beads.
25 μl of the supernatant was harvested from each well and transferred to a detection plate. 100 μl of OptiPhase SuperMix scinitillation cocktail (containing sufficient NaOH to neutralize the TCA) was added and the solutions mixed by vigorous shaking (300-400 rpm) for 5 minutes at room temperature.

Structure (SMILES) | IC50 [nM]
O=C(Nc1ccc2ncn(Cc3ccc(Cl)c(Cl)c3)c(=O)c2c1)OCCc1ccccc1 [LXXI, N-{3-[(3,4-dichlorophenyl)methyl]-4-oxo(3-hydroquinazolin-6-yl)}(2-phenylethoxy)carboxamide] | 4380
CC(=O)OCC(=O)Nc1ccc2c(=O)n(Cc3cccc(F)c3)cnc2c1 [LXXII, (N-{3-[(3-fluorophenyl)methyl]-4-oxo-3-hydroquinazolin-7-yl}carbamoyl)methyl acetate] | 290
O=C(Nc1ccc2c(=O)n(Cc3ccc(F)c(Cl)c3)cnc2c1)OCc1ccccc1 [LXXIII, N-{3-[(3-chloro-4-fluorophenyl)methyl]-4-oxo(3-hydroquinazolin-7-yl)}(phenylmethoxy)carboxamide] | 290
O=C(Nc1ccc2c(=O)n(Cc3ccc(F)c(Cl)c3)cnc2c1)OCc1cccnc1 [LXXIV, N-{3-[(3-chloro-4-fluorophenyl)methyl]-4-oxo(3-hydroquinazolin-7-yl)}(3-pyridylmethoxy)carboxamide] | 120
O=C(Nc1ccc2ncn(Cc3ccc(Cl)c(Cl)c3)c(=O)c2c1)OCc1ccncc1 [LXXIX, N-{3-[(3,4-dichlorophenyl)methyl]-4-oxo(3-hydroquinazolin-6-yl)}(4-pyridylmethoxy)carboxamide] | 1000
CC(=O)OCC(=O)Nc1ccc2c(=O)n(Cc3ccc(F)c(Cl)c3)cnc2c1 [LXXV, (N-{3-[(3-chloro-4-fluorophenyl)methyl]-4-oxo-3-hydroquinazolin-7-yl}carbamoyl)methyl acetate] | 1090
O=C(Nc1ccc2c(=O)n(Cc3cccc(F)c3)cnc2c1)OCc1cccnc1 [LXXVI, N-{3-[(3-fluorophenyl)methyl]-4-oxo(3-hydroquinazolin-7-yl)}(3-pyridylmethoxy)carboxamide] | 1340
O=C(Nc1ccc2c(=O)n(Cc3ccc(Cl)c(F)c3)cnc2c1)OCc1cccnc1 [LXXVII, N-{3-[(4-chloro-3-fluorophenyl)methyl]-4-oxo(3-hydroquinazolin-7-yl)}(3-pyridylmethoxy)carboxamide] | 250
CC(=O)OCC(=O)Nc1ccc2c(=O)n(Cc3ccc(Cl)c(F)c3)cnc2c1 [LXXVIII, (N-{3-[(4-chloro-3-fluorophenyl)methyl]-4-oxo-3-hydroquinazolin-7-yl}carbamoyl)methyl acetate] | 1020
N#Cc1cccc(COC(=O)Nc2ccc3ncn(Cc4ccc(Cl)c(Cl)c4)c(=O)c3c2)c1 [LXXX, N-{3-[(3,4-dichlorophenyl)methyl]-4-oxo(3-hydroquinazolin-6-yl)}[(3-cyanophenyl)methoxy]carboxamide] | 670
O=C(CO)Nc1ccc2c(=O)n(Cc3ccc(Cl)cc3)cnc2c1 [LXXXI, N-{3-[(4-chlorophenyl)methyl]-4-oxo(3-hydroquinazolin-7-yl)}-2-hydroxyacetamide] | 3120
O=C(CO)Nc1ccc2c(=O)n(Cc3ccc(Cl)c(Cl)c3)cnc2c1 [LXXXII, N-{3-[(3,4-dichlorophenyl)methyl]-4-oxo(3-hydroquinazolin-7-yl)}-2-hydroxyacetamide] | 350
O=C(Nc1ccc2c(=O)n(Cc3ccc(Cl)c(F)c3)cnc2c1)OCc1ccccc1 [LXXXIII, N-{3-[(4-chloro-3-fluorophenyl)methyl]-4-oxo(3-hydroquinazolin-7-yl)}(phenylmethoxy)carboxamide] | 210
CN(CCOC(=O)Nc1ccc2ncn(Cc3ccc(Cl)c(Cl)c3)c(=O)c2c1)Cc1ccccc1 [LXXXIV, N-{3-[(3,4-dichlorophenyl)methyl]-4-oxo(3-hydroquinazolin-6-yl)}{2-[methylbenzylamino]ethoxy}carboxamide] | 11000
O=C(Nc1ccc2ncn(Cc3ccc(Cl)c(Cl)c3)c(=O)c2c1)OCc1ccccn1 [LXXXIX, N-{3-[(3,4-dichlorophenyl)methyl]-4-oxo(3-hydroquinazolin-6-yl)}(2-pyridylmethoxy)carboxamide] | 780
O=C(Nc1ccc2ncn(Cc3ccc(Cl)c(Cl)c3)c(=O)c2c1)OCC1CC1 [LXXXV, N-{3-[(3,4-dichlorophenyl)methyl]-4-oxo(3-hydroquinazolin-6-yl)}(cyclopropylmethoxy)carboxamide] | 2970
